According to patent US12304894B2, “Derivatives of adamantyl oxadiazoles and pharmaceutically acceptable solvates, hydrates and salts thereof, pharmaceutical composition comprising same, synthesis method, suitable for use as effective and selective inhibitors of the reductase activity of the enzyme 11-beta dehydrogenase type 1 …” (PONTIFICIA UNIVERSIDAD CATOLICA DE CHILE, priority 2019, dated 2025):
pIC50: −log10 of the molar value.

Columns and labels:
[1] = target: T1, recombinant 11β-HSD1 enzyme (Homo sapiens (Human), UniProt P28845); test: 11β-HSD1 reductase activity (HTRF Cortisol Kit); format: biochemical; details: 266 nM cortisone, 333 μM NADPH, read-out: 11b-HSD1 reductase (HTRF) IC50
T1 sequence (P28845 whole entry): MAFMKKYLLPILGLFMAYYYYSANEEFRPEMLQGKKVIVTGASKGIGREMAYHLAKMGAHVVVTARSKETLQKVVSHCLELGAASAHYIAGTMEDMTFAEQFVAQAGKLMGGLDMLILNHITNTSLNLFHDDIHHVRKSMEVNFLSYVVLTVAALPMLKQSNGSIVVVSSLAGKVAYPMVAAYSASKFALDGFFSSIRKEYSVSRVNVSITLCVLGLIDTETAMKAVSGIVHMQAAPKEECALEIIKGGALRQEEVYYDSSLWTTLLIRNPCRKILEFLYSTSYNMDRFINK
Experimental: Determination of 11β-HSD1 Reductase Activity
First, stock solutions of the compounds were prepared in DMSO at a concentration of […], of which serial dilutions were made in order to determine the efficacy curve.
As for the recombinant 11β-HSD1 enzyme (Cayman Chemical, MI, USA; Item No. 10007815), it was prepared in Tris Buffer 20 mM EDTA 5 mM pH 6.0 (Tris buffer) at different dilutions.
Initially, the enzyme concentration to be used in the assays in order to evaluate the biological activity of the compounds was determined. The Cortisol Kit product (Cisbio, MA, USA; Cat no. 62CRTPEG) was used for that purpose.
The protocol consisted of preparing the reaction buffer, adding 266 nM cortisone and 333 μM NADPH in Tris buffer. Then, this reaction buffer is added to the wells of the HTRF (Homogeneous Time Resolved Fluorescence) reaction plate together with the enzyme in a 4:1 ratio respectively, and incubated for 2 hours at 37° C. In the case of the control wells, two wells with Tris buffer were added, without compounds.
After the incubation time, the reagents of the Cortisol kit were added, Cortisol d2 and Cortisol cryptate in sample ratio, Cortisol d2 and cortisol cryptate 2:1:1, in a quantity according to the size of the well as indicated by the supplier (for the negative control of the kit, the cortisol d2 is replaced by the kit's reconstitution buffer). This reaction is incubated for 1 hour at room temperature in order to later read the fluorescence at 665 and 620 nm.
Once the enzyme concentration to be used has been determined, the cortisol kit protocol is continued to determine the efficacy curve for the compounds. As previously done, a plate for HTRF was prepared adding to each well of the reaction buffer, the recombinant 11β-HSD1 enzyme and the compounds to be assayed in a 3:1:1 ratio, respectively. The plate was subsequently incubated at 37° C. for 2 hours.
After the incubation time, the reagents of the cortisol kit, cortisol d2 and cortisol cryptate, are added, and were incubated again for 1 hour at room temperature. Finally, the fluorescence of each well was determined at 665 and 620 nm.

[2] = In vivo pharmacokinetics in mice, IV and oral; set-up: species or system male C57BL/6J mice
Experimental: The animals were classified according to weight and divided into the following groups (Table 7):
20% Kolliphor and 50% PBS at a concentration of 1 mg/mL. From this solution, a 0.4 mg/mL dilution was made for IV administration.
In intravenous (IV) administration, after each compound was administered to the mice, the mice were separated into groups of 3 and were euthanized at times 5, 10, 15, 30, 60, 120, 240, 260, 480 and 1440 minutes. For oral administration (V.O), the mice were separated into groups of 3 and were euthanized at times 15, 30, 60, 120, 240, 260, 480 and 1440 minutes. To obtain zero-time assays, mice were used to which no compound was administered.
Whole blood was obtained from each animal (in microtubes with EDTA); these samples were centrifuged at 9000 g at a temperature of 4° C. for a period of 5 minutes, obtaining the plasma which was stored at −80° C.
In addition, organs such as brain, liver, muscle, epididymal fat, heart and kidney were obtained from the animals, which were frozen in liquid nitrogen and stored at −80° C.
Plasma samples and brain, liver, epididymal fat, and muscle (tissue) samples were analyzed. 2× in volume of water (weight/volume) was added to the tissue samples while 4× in volume of water (weight/volume) was added to the muscle mixture, after which they were homogenized using a Bullet Blender equipment (Next Advance, USA).
All samples were analyzed as a single point by LC-MS/MS in accordance with the analytical methodology already standardized and presented in application example 3.
To begin, a calibration curve was run. For this purpose, the controls, the plasma and organ samples were prepared by adding 180 μL of cold acetonitrile to these, then vortexed for 15 seconds and centrifuged at 6100 g for 30 seconds at 4° C. The supernatant which was obtained from this procedure was diluted in 2 volumes of 0.2% formic acid in water and transferred to a vial that will allow it to be injected into LC-MS/MS.
The conditions for the LC-MS/MS analysis were: • HPLC: Eksigent UltraLC 100 • Autosampler: Eksigent UltraLC 100-XL at RT • Mobile phase: A-0.1% formic acid in water; B-0.1% formic acid in acetonitrile. • Column: YMC Triart 1.9 μm; 2.0×50 mm • Injection volume: 2 μL • Gradient: 5% B for 0.25 min→5-95% B for 0.75 min→95% B for 2 min→95-5% B for 0.25 min→5% B for 0.25 min • Flow: 0.6 mL/min • Mass Spectrometer: Applied Biosystems/SCIEX QTRAP 4500 • Interface: TurbolonSpray (ESI) at 600° C. • Software: Analyst.

[3] = target: T1, recombinant 11β-HSD1 enzyme; test: 11β-HSD1 oxidase activity (HTRF Cortisol Kit); format: biochemical
Experimental: Determination of 11β-HSD1 Oxidase Activity
The Cortisol Kit (Cisbio) product was used for that purpose.
For the analysis, the compounds are reconstituted in DMSO in a stock of 10 mM concentration, from which serial dilutions were prepared for the efficiency curve.
The recombinant 11β-HSD1 enzyme dilutions were prepared in 20 mM Tris Buffer 5 mM EDTA pH 6.0 (Tris buffer).
Initially, the enzyme concentration to be used was determined. For this purpose, a plate for HRTF was prepared with Tris buffer with 100 nM cortisol and 200 μM NADP+, including in the wells of the plate for HTRF together with the enzyme in a 4:1 ratio, respectively, and incubated for 2 hours at 37° C. After this time, the reagents of the Cortisol kit, Cortisol d2 and Cortisol cryptate in sample ratio, Cortisol d2 and cortisol cryptate 2:1:1 were added, incubating this new reaction for 1 hour at room temperature. Subsequently, the fluorescence was determined at 665 and 620 nm.
An HRTF plate was again prepared, where the reaction buffer, the recombinant 11β-HSD1 enzyme and the compound were added in each well in a 3:1:1 ratio, respectively. The plate was incubated at 37° C. for 2 hours. After the incubation time, the reagents of the cortisol kit, cortisol d2 and cortisol cryptate, were added as indicated above. They were then incubated at room temperature for 1 hour to finally read the fluorescence at 665 and 620 nm.

[4] = tested on: Madin-Darby Canine Kidney (MDCK) cells transfected with human P-glycoprotein (hMDR1); details: MDCK-MDR1
Experimental: Madin-Darby Canine Kidney (MDCK) cells were used in this assay, which are stably transfected with the gene encoding human P-glycoprotein (hMDR1). These cells were cultured in DMEM medium (Dulbecco's Modified Eagle's Medium) high in glucose and supplemented with 10% fetal bovine serum, 1% 5 mM pyruvate, 1% non-essential amino acids solution X5, 20,000 IU/mL of penicillin G and 20,000 IU/mL of streptomycin, a temperature of 37° C., 90% relative humidity and 5% CO2. These cells were seeded in sterile plates on the fourth day of growth or until reaching 90% confluence.
Ten days before carrying out the transport analysis, cells were seeded in Transwells® inserts (1.12 cm2) at a density of 60,000 cells/cm^2. The monolayers were supplemented every two days with fresh culture medium. […] In parallel, B-A experiments were performed (1.5 mL of donor solution in basolateral compartment and 0.5 mL buffer in apical). The monolayers were incubated while stirring (50 rpm) at a temperature of 37° C. for a period of 2 hours. Additionally, this assay was performed in the presence of the Pgp inhibitor elacridar (5 μM). After the stir time, the inserts were removed, the compartments were sampled and the cells were transferred to HPLC vials by diluting these samples with mobile phase chromatography. These samples were kept at −20° C. until their analysis time. […]

Substance: 1-(3-pyridyl)-2-(3-adamantyl-1,2,4-oxadiazol-5-yl)ethane [BD-44]
- pIC50 [1]: 8.41
- AUCExtr ([2]; IV, 2 mg/Kg, plasma): 0.672%
- AUCInf ([2]; IV, 2 mg/Kg, plasma): 369 ng·h/mL
- AUCfinal ([2]; IV, 2 mg/Kg, plasma): 368 ng·h/mL
- CL ([2]; IV, 2 mg/Kg, plasma): 90.3 mL/min/kg
- Vz ([2]; IV, 2 mg/Kg, plasma): 7.95 L/kg
- t1/2 ([2]; IV, 2 mg/Kg, plasma): 1.02 h
- AUCExtr ([2]; PO, 10 mg/Kg, plasma): 1.39%
- AUCInf ([2]; PO, 10 mg/Kg, plasma): 148 ng·h/mL
- AUCfinal ([2]; PO, 10 mg/Kg, plasma): 146 ng·h/mL
- CL ([2]; PO, 10 mg/Kg, plasma): 1120 mL/min/kg
- F ([2]; PO, 10 mg/Kg, plasma): 8.00%
- Vz ([2]; PO, 10 mg/Kg, plasma): 102 L/kg
- t1/2 ([2]; PO, 10 mg/Kg, plasma): 1.05 h
- tmax ([2]; PO, 10 mg/Kg, plasma): 0.5 h
- mean time (of elimination) of the drug ([2]; administered intravenously, plasma): 1.02 h
- mean time (of elimination) of the drug ([2]; administered orally, plasma): 1.05 h
- time post administration up to which compound was detected ([2]; both intravenously and orally, plasma): up to 6 hours
- detection in tissues (brain, liver, fat, muscle) ([2]; oral and intravenous administration): not detected in the tissues assayed
- bioavailability / apparent availability ([2]; plasma): low apparent availability
- 11b-HSD1 oxidase (activ rem %) 100 nM ([3]; remaining activity at 100 nM compound): 107.0%
- 11b-HSD1 oxidase (activ rem %) 100 uM ([3]; remaining activity at 100 uM compound): 94.3%
- Papp compared with high permeability marker minoxidil [4]: higher than those of the high permeability marker minoxidil
